Experimental data published in US10160972B2, “Methods and materials for treating cancer” (Mayo Foundation for Medical Education and Research, priority 2012, dated 2018).

Experiments:
T24 bladder cancer cells = assay: Cell number growth inhibition assay; assay type: cell-based, human
Protocol: (§1) A number of cancer cell lines were tested to determine whether SCD1 protein expression correlates with growth inhibition of an SCD1 inhibitor in human cancer cell lines.
(§2) Cells (20,000/ml) were plated in 12 well cell culture plates, allowed to attach and treated with the indicated dose of SCD1 inhibitor ([…]) or standard of care (gemcitabine). Cell number was counted using a Coulter Counter. As show in FIG. 7, the data are expressed as percent of DMSO control. Each value represents triplicates. Western analysis for SCD1 protein expression was performed on each cell line with beta-actin as the loading control.
(§3) The following cell lines were studied using a similar method as that described above.

[1] = test system: HT1376 bladder cancer cells; assay: Cell number growth inhibition assay; assay type: cell-based, human
Protocol: as §1, §2, §3

[2] = test system: BCJ4T bladder cancer cells; assay: Cell number growth inhibition assay; assay type: cell-based, human
Protocol: as §1, §2, §3

A498 ccRCC xenografts [3] = assay: IHC analysis of resected xenograft tumors
Protocol: The TMAs were mounted on slides from paraffin-embedded blocks according to IHC procedure and samples were blocked with Diluent that contained Background Reducing Components (Dakocytomation) for 30 min and then probed for SCD1, Ki67, Caspase-3, CD31, phospho-mTOR, DDIT3, and XBP1. […] Stain scoring was done using algorithms generated with Imagescope software created by a histologist. H-scores were calculated based upon signal intensity (0-3+) using the formula: [(1+%×1)+(2+%×2)+(3+%×3)], intensity (I)-scores were calculated by dividing signal intensity by area, and nuclear (N)-scores were calculated by dividing % positive nuclei by total nuclei examined per area. Cases where insufficient tumor tissue presented were excluded from the study. 20× images were obtained using Scanscope XT and Imagescope software.
IHC analysis of tumors resected from each treatment group was analyzed for proliferation, angiogenesis, and cell death (FIG. 6B).

SCD1 [4] = settings: breast cancer cells, previously reported; cited from earlier work
[5] = test system: A498, Caki1, Caki2, and ACHN ccRCC cell lines; assay: Temsirolimus dose out, cell proliferation; assay type: cell-based, human; settings: monotherapy, four ccRCC cell lines; no dose response could be determined
Protocol: (§4) Drug stocks were prepared in DMSO. Monotherapeutic treatment identified drug dose-response. […] Temsirolimus dosing was performed as described in the text.
After identifying appropriate cell proliferative dose responses for pazopanib and sunitinib in four ccRCC cell lines including A498, Caki1, Caki2, and ACHN, both TKIs were dosed in combination with A939572 up to approximately the IC50 dose for each drug in the Caki1 and the A498 cell lines. […] Combinatorial treatments were therefore done using a fixed dose of Tem (0.1 nM, 1 nM, and 10 nM) combined with a dose range of A939572 up to the IC50 in Caki1, A498, Caki2 and ACHN cells.

A498 ccRCC xenografts [6] = assay: Western blot of CHOP in xenograft tumor tissue; assay type: in vivo, athymic nude (nu/nu) mice; settings: normalized to β-actin, tumor tissue samples
Protocol: (§5) Protein extracts, electrophoresis, and membrane transfers were prepared as previously described (Copland J A, Marlow L A, Kurakata S, Fujiwara K, Wong A K, Kreinest P A, et al. Novel highaffinity PPARgamma agonist alone and in combination with paclitaxel inhibits human anaplastic thyroid carcinoma tumor growth via p21WAF1/CIP1. Oncogene. 2006; 25:2304-17). Primary antibodies included SCD1, PARP, DDIT3, BiP, sXBP1, and β-actin. A Supersignal chemiluminescent kit was used to perform detection.

[7] = test system: Caki1 and A498 ccRCC cell lines; assay: Proliferation assay of shSCD lentiviral infected cells; assay type: cell-based, human; settings: vs NT control or treated normal kidney cells (K359N and K360N), counted after five days
Protocol: as §4
(§6) MISSION shRNA pLK0.1 constructs were used to make self-inactivating shRNA lentiviruses for human SCD1 (clones: NM_005063.3-1200s1c1[shSCD1200], NM_005063.3-780s1c1[shSCD780]), and a non-target (NT) random scrambled sequence control (SHC002). Transfection reagents Lipofectamine 2000 and ViraPower were used to generate lentiviruses using HEK293FT viral progenitor cells. ccRCC and NRE cells were incubated with lentivirus plus 5 μg/mL polybrene for 24 hrs prior to clonal selection with Puromycin.
(§7) Media alone and BSA supplemented media served as control groups. Proliferation assay of NT control versus shSCD780 infected Caki1 and A498 cells cultured in media with or without OABSA were counted after five days. […] SCD1 knockdown by lentiviral infection was confirmed at the protein level (FIG. 3B).

[8] = test system: Caki1 and A498 ccRCC cell lines; assay: PARP cleavage immunoblot of shSCD lentiviral infected cells; assay type: cell-based, human
Protocol: as §6, §5, §7

SCD1 [9] = assay: Lentiviral shRNA knockdown of SCD1 in ccRCC cell lines (Caki1 and A498); assay type: cell-based, human
Protocol: as §6
(§8) An RNAqueous Midi Kit was utilized to extract and purify RNA from cell lines. Human tissue RNA was prepared using TRIzol® per manufacturer's protocol followed by purification using the RNAqueous Midi Kit. The O.D. 260/280 ratio of the mRNA was at least 1.8 and the 18s/28s bands were verified on a 1% agarose gel. cDNA was prepared from purified RNA samples using High Capacity cDNA Reverse Transcriptase Kit per manufacturer's instruction. TaqMan®Fast Universal PCR Master Mix and TaqMan®FAMTM dye-labeled probes including POLR2A (Hs00172187_m1) (normalization control), SCD1 (Hs01682761_m1), HSPA5 (Hs99999174_m1), CEBPβ (CEBPB Hs00270923_s1), GADD45A (Hs00169255_m1), DDIT3 (Hs01090850_m1), and HERPUD1 (Hs01124269_m1) were combined with prepared cDNA samples to analyze relative mRNA expression via qPCR. Fold change values were compared between normal and tumor, non-target scrambled lentiviral and target lentiviral infected, and DMSO vs. A939572 treated samples using the ΔΔCt method (Schmittgen T D, Livak K J. Analyzing real-time PCR data by the comparative C(T) method. Nat Protoc. 2008; 3:1101-8).
as §5
To determine the involvement of SCD1 expression in renal cell carcinoma proliferation, two separate lentiviral constructs were designed to express shRNA molecules having the ability to reduce SCD1 expression. The first lentiviral construct was designed to express an shRNA designated SCD780. The sequence of SCD780 was as follows: 5′-[…]-3′ (SEQ ID NO:1). The second lentiviral construct was designed to express an shRNA designated SCD1200. The sequence of SCD1200 was as follows: 5′-[…]-3′ (SEQ ID NO:2). A non-target lentiviral construct was designed as a control.

SCD1 [10] = assay: Lentiviral shRNA knockdown of SCD1 in normal renal epithelial cells (K359N and K360N); assay type: cell-based, human
Protocol: as §6
as §8, with “Fold change values were compared between normal and tumor, non-target scrambled lentiviral and target lentiviral infected, and DMSO vs. A939572 treated samples using the ΔΔCt method (Schmittgen T D, Livak K J. Analyzing real-time PCR data by the comparative C(T) method. Nat Protoc. 2008; 3:1101-8).” left out

FF1 cells = assay: Cell number growth inhibition assay; assay type: cell-based, human
Protocol: A number of cancer cell lines were tested to determine whether SCD1 protein expression correlates with growth inhibition of an SCD1 inhibitor in human cancer cell lines. […] Cell number was counted using a Coulter Counter. […] Each value represents triplicates.

[11] = test system: A549 nonsmall cell lung cancer cells; assay: Cell number growth inhibition assay; assay type: cell-based, human
Protocol: as §1, §2, §3

[12] = test system: KTC3 thyroid cancer cells; assay: Cell number growth inhibition assay; assay type: cell-based, human
Protocol: as §1, §2, §3

[13] = test system: HOV TAX2 ovarian cancer cells; assay: Cell number growth inhibition assay; assay type: cell-based, human
Protocol: as §1, §2, §3

Mela 11 melanoma cells = assay: Cell number growth inhibition assay; assay type: cell-based, human
Protocol: as §1, §2, §3

A375 melanoma cells = assay: Cell number growth inhibition assay; assay type: cell-based, human
Protocol: as §1, §2, §3

[14] = test system: SNU449 liver cancer cells; assay: Cell number growth inhibition assay; assay type: cell-based, human; settings: SNU449 liver cancer cells
Protocol: as §1, §2, §3

[15] = test system: ATF6 luciferase reporter in A498 cells
Protocol: (§10) For transient transfection, Caki1 and A498 cells were transfected using Lipofectamine 2000. Cells treated with DMSO vs. A939572 or infected using shSCD780 lentiviral constructs vs. NT control were harvested after 48 hrs using Promega's Dual Luciferase assay kit per the manufacturer's protocol and luciferase activity was measured using a Veritas Luminometer; reported as relative luminescence.
(§11) Caki1 and A498 cells transfected with an ATF6 luciferase reporter (p5xATF6-GL3) were treated with a 75 nM dose of A939572 or were infected with shSCD780. Resulting luminescence was measured after 48 hours.

[16] = test system: ATF6 luciferase reporter in Caki1 cells
Protocol: as §10, §11

A498 cells = assay: qPCR of five ER stress genes; assay type: cell-based, human
Protocol: as §8
(§9) In order to validate the specificity of ER stress induction mediated by both A939572 and shSCD780, rescue assays were performed using OA-BSA in Caki1 and A498 cells qPCR analysis of five ER stress genes identified in the gene array including BiP, CHOP, HERPUD1 (homocysteine-inducible, ER-stress inducible, ubiquitin-like-1), GADD45a (DNA damage inducible transcript 1, DDIT1), and CEBPβ (CCAAT/enhancer binding protein beta) were examined.

Caki1 cells = assay: qPCR of five ER stress genes; assay type: cell-based, human
Protocol: as §8, §9

Caki1 and A498 cells = assay: Western blot of ER stress markers; assay type: cell-based, human; settings: 75 nM drug or shSCD780 knockdown, 48 hours
Protocol: as §5

N.N.[Cl][Pt][Cl] [Cisplatin]
growth inhibition (T24 bladder cancer cells): minimal growth inhibitory effects
growth inhibition [1]: minimal growth inhibitory effects
growth inhibition [2]: minimal growth inhibitory effects

CO[C@H]1C[C@@H]2CC[C@@H](C)[C@@](O)(O2)C(=O)C(=O)N2CCCC[C@H]2C(=O)O[C@H]([C@H](C)C[C@@H]2CC[C@@H](OC(=O)C(C)(CO)CO)[C@H](OC)C2)CC(=O)[C@H](C)/C=C(\C)[C@@H](O)[C@@H](OC)C(=O)[C@H](C)C[C@H](C)/C=C/C=C/C=C/1C [Temsirolimus, temsirolimus]
phosphorylated mTOR expression (A498 ccRCC xenografts [3]; compared to the Placebo and A939572 groups): decreased expression
angiogenesis, intensity of microvessel density (CD31) (A498 ccRCC xenografts [3]; cumulative scores not considered significant): slight decrease
cell death, cleaved caspase-3 (CC3) (A498 ccRCC xenografts [3]; vs placebo / other groups): moderate increase
proliferation, percent positivity of nuclear Ki67 staining (A498 ccRCC xenografts [3]; vs placebo control): decreased proliferation
SCD1 expression (SCD1 [4]): decrease SCD1 expression
reduction in cell proliferation [5]: limited reduction in cell proliferation
CHOP expression (ER stress) (A498 ccRCC xenografts [6]): induction of CHOP, although to a lesser extent

SCD1200: lentiviral construct expressing shRNA against SCD1, 5′-CGTCCTTATGACAAGAACATT-3′ (SEQ ID NO:2)
proliferation / growth [7]: reduced proliferation
apoptosis by PARP cleavage [8]: induction of apoptosis
SCD1 mRNA expression levels (SCD1 [9]): reduced SCD1 mRNA expression levels
SCD1 polypeptide expression levels (SCD1 [9]): reduced SCD1 polypeptide expression levels
SCD1 mRNA expression levels (SCD1 [10]): reduced SCD1 mRNA expression levels

CC(=O)O[C@H]1C(=O)[C@@]2(C)[C@H]([C@H](OC(=O)c3ccccc3)[C@]3(O)C[C@H](OC(=O)[C@H](O)[C@@H](NC(=O)c4ccccc4)c4ccccc4)C(C)=C1C3(C)C)[C@]1(OC(C)=O)CO[C@@H]1C[C@@H]2O [Taxol]
growth inhibition (FF1 cells): minimal growth inhibitory effects
growth inhibition [11]: growth inhibitory
growth inhibition [12]: growth inhibitory
growth inhibition [13]: growth inhibitory

Cn1nnc2c(C(N)=O)ncn2c1=O [Temodar]
growth inhibition (Mela 11 melanoma cells): not
growth inhibition (A375 melanoma cells): dose responsively inhibits growth

CNC(=O)c1cc(Oc2ccc(NC(=O)Nc3ccc(Cl)c(C(F)(F)F)c3)cc2)ccn1 [Sorafenib]
effective concentrations [14]: 1 to 10 µM

shSCD780: lentiviral construct expressing shRNA against SCD1, 5′-CTACGGCTCTTTCTGATCATT-3′ (SEQ ID NO:1)
reporter activation with addition of OA-BSA ([15]; A498, + OA-BSA): significantly reduced reporter activation
luciferase activity, fold change induction ([15]; A498, +BSA, 75 nM A939572 or shSCD780, 48 hours, vs DMSO and NT controls): 2.0 fold change
proliferation / growth [7]: significant decreases in growth
proliferation / growth ([7]; listed as SCD780): reduced proliferation
apoptosis by PARP cleavage [8]: induction of apoptosis
reporter activation with addition of OA-BSA ([16]; Caki1, + OA-BSA): significantly reduced reporter activation
luciferase activity, fold change induction ([16]; Caki1, +BSA, 75 nM A939572 or shSCD780, 48 hours, vs DMSO and NT controls): 1.7 fold change
ER stress gene expression with addition of OA-BSA (A498 cells; A498, + OA-BSA): successfully blocked
mRNA expression of ER stress genes BiP, CHOP, HERPUD1, GADD45a, CEBPβ (A498 cells; A498, vs DMSO+BSA or NT control): 4 of the 5 were significantly induced
ER stress gene expression with addition of OA-BSA (Caki1 cells; Caki1, + OA-BSA): successfully blocked
mRNA expression of ER stress genes BiP, CHOP, HERPUD1, GADD45a, CEBPβ (Caki1 cells; Caki1, vs DMSO+BSA or NT control): all of the ER stress genes were significantly induced
protein expression of ER stress markers BiP, CHOP, spliced-XBP1 (Caki1 and A498 cells): amplified expression
SCD1 mRNA expression levels (SCD1 [9]): reduced SCD1 mRNA expression levels
SCD1 polypeptide expression levels (SCD1 [9]): reduced SCD1 polypeptide expression levels
SCD1 mRNA expression levels (SCD1 [10]): reduced SCD1 mRNA expression levels
